Data set [1] concerns MC-38. The data set is described as follows: Antitumour activity against mouse MC38 cells in C57BL/6 mouse assessed as tumour growth inhibition at 50 mg/kg, ip, bid measured after 9 days relative to control. The class given is functional. The settings on record: MC-38, ip, 216 h, time 9 day, read-out: TGI.
Data set [2] relates to MC-38. Nature of the data set: Antitumour activity against mouse MC38 cells in C57BL/6 mouse assessed as tumour growth inhibition at 30 mg/kg, ip, bid measured after 9 days relative to control. The class given is functional. The settings on record: MC-38, ip, 216 h, time 9 day, read-out: TGI.
Data set [3] concerns MC38. Nature of the data set: Inhibition of HDAC in mouse MC38 cells assessed as increase in acetyl-histone H4 measured after 24 hrs by Western blot analysis. Format: cell-based. A general note: A western blot detects proteins with antibodies after separation by electrophoresis.
The target in data set [4] is T1, Polyamine deacetylase HDAC10 (Homo sapiens, UniProt Q969S8).
T1 sequence (Q969S8 whole entry): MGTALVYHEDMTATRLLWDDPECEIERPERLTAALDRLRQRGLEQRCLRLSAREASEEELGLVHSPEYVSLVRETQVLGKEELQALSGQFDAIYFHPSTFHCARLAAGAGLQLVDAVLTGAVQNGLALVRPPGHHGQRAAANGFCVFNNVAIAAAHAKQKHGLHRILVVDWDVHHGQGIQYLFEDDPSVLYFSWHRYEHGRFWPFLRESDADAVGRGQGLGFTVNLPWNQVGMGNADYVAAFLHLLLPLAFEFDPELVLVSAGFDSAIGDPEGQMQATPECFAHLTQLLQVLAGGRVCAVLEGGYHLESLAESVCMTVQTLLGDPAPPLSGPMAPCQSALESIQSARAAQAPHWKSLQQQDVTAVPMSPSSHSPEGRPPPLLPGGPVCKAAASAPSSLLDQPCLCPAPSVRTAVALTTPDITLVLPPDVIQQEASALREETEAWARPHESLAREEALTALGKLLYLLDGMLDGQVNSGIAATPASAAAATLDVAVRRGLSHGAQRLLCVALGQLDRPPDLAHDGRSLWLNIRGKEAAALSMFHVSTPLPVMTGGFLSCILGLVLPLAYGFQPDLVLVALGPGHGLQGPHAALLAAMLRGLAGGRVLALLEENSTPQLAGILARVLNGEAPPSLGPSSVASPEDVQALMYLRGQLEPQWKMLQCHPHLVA
The data set is described as follows: Inhibition of HDAC10 (unknown origin) assessed as release of 7-amino-4-methylcoumarin incubated in room temperature for 15 min measured by Spectra max microtitre plate reader.

Data set [5] concerns the target Histone deacetylase 4 (Homo sapiens, UniProt P56524). Nature of the data set: Inhibition of HDAC4 (unknown origin) assessed as release of 7-amino-4-methylcoumarin incubated in room temperature for 15 min measured by Spectra max microtitre plate reader.
The nature of data set [6]: Volume of distribution in ICR mouse at 5 mg/kg, iv up to 24 hrs by LC-MS/MS analysis. The class given is ADME, organism-based. The settings on record: in vivo.
The nature of data set [7]: AUC (0 to infinity) in ICR mouse at 5 mg/kg, iv up to 24 hrs by LC-MS/MS analysis. The class given is ADME, organism-based. Further details: route intravenous, dose 5 mg/kg, time <=24. The following applies: in vivo.
A short description of data set [8]: AUC (0 to […]) in ICR mouse at 5 mg/kg, iv up to 24 hrs by LC-MS/MS analysis. The class given is ADME, organism-based. The following applies: in vivo. Further details: route intravenous, dose 5 mg/kg, time <=24.
Data set [9] can be described thus: Half life in ICR mouse at 5 mg/kg, iv up to 24 hrs by LC-MS/MS analysis. The settings on record: in vivo. Format: ADME, organism-based.
A short description of data set [10]: Half life in ICR mouse at 20 mg/kg, ip up to 24 hrs by LC-MS/MS analysis. The following applies: in vivo. Format: ADME, organism-based.
A short description of data set [11]: Oral bioavailability in ICR mouse at 20 mg/kg by LC-MS/MS analysis. The class given is ADME, organism-based. The following applies: in vivo.
A short description of data set [12]: MRT in ICR mouse at 20 mg/kg, po by LC-MS/MS analysis. Format: ADME, organism-based. The settings on record: in vivo.
Data set [13] in a line: AUC (0 to infinity) in ICR mouse at 20 mg/kg, po by LC-MS/MS analysis. Format: ADME, organism-based. The arrangement: time infinity, route oral, dose 20 mg/kg. The settings on record: in vivo.
The subject of data set [14] is CT26. Nature of the data set: Antiproliferative activity against mouse CT26 cells measured after 72 hrs by CCK8 assay. The class given is functional. The settings on record: Mus musculus, CT26. On the technique in general: Tetrazolium assays rely on reduction of a dye to a coloured formazan, in cell work by metabolically active cells.
In data set [15] the test system is MC-38. The data set is described as follows: Antiproliferative activity against mouse MC38 cells measured after 72 hrs by CCK8 assay. Format: functional. The settings on record: Mus musculus, MC-38.
In data set [16] the target is Histone deacetylase 1 (Homo sapiens, UniProt Q13547). The data set is described as follows: Inhibition of HDAC1 (unknown origin) assessed as release of 7-amino-4-methylcoumarin incubated in room temperature for 15 min measured by Spectra max microtitre plate reader.
For data set [17], the target named is T2, Protein deacetylase HDAC6 (Homo sapiens, UniProt Q9UBN7).
T2 sequence (Q9UBN7 whole entry): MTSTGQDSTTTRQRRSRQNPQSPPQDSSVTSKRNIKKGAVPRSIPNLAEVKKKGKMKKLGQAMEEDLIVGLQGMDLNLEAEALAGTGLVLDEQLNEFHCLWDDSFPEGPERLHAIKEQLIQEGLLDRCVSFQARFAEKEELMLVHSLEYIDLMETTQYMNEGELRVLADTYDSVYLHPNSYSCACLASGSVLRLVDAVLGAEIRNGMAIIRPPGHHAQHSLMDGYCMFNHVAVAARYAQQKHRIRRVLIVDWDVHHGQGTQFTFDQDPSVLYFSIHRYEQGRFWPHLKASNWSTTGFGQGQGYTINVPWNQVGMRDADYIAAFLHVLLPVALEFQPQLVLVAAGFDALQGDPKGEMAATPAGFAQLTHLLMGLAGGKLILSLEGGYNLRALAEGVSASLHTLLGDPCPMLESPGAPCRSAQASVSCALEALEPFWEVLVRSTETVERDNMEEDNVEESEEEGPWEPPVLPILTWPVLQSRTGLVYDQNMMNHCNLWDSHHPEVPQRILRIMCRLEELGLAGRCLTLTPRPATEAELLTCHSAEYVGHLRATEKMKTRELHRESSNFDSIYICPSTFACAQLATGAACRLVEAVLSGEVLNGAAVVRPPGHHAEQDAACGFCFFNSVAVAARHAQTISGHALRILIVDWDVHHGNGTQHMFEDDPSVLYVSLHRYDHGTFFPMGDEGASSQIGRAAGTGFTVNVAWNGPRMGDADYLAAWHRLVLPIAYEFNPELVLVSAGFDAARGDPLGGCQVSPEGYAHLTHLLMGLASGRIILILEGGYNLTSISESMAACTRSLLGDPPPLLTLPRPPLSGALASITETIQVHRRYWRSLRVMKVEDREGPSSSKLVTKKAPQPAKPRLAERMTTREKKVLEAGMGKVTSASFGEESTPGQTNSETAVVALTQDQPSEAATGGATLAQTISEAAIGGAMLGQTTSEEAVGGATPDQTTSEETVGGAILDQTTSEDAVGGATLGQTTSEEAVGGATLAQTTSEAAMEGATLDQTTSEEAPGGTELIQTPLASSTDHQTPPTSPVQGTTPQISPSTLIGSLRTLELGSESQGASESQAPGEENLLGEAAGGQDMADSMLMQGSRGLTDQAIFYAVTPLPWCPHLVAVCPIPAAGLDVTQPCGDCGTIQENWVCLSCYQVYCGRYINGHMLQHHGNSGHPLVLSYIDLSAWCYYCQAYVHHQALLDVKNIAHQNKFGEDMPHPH
The data set is described as follows: Inhibition of HDAC6 (unknown origin) assessed as release of 7-amino-4-methylcoumarin incubated in room temperature for 15 min measured by Spectra max microtitre plate reader.

Broadly, the IC50 is the concentration at which inhibition is half-maximal. As a reminder, the Vd is the apparent volume that relates the amount in the body to the concentration in plasma or blood. High values mean extensive tissue distribution, low ones confinement near the circulation. By AUC(0-inf) is commonly meant the area under the concentration-time curve extrapolated to infinity. Read a low AUC(0-inf) as low exposure. The term AUC(0-t) denotes the area under the concentration-time curve up to a stated or last time point. A low value points to less exposure. By half-life is commonly meant the time in which the quantity being followed falls by half. High values mean slow loss, low ones fast loss. The bioavailability is the share of a dose that reaches the circulation, judged against a reference dose that is usually intravenous. Read a high bioavailability as good availability. For orientation: MRT means a mean duration of stay, worked out from the concentration-time curve. The term GI50 denotes the concentration giving 50% growth inhibition. High values mean lower sensitivity of the cells, low ones greater sensitivity of the cells.

Chain of Histone deacetylase 1 (Q13547 whole entry): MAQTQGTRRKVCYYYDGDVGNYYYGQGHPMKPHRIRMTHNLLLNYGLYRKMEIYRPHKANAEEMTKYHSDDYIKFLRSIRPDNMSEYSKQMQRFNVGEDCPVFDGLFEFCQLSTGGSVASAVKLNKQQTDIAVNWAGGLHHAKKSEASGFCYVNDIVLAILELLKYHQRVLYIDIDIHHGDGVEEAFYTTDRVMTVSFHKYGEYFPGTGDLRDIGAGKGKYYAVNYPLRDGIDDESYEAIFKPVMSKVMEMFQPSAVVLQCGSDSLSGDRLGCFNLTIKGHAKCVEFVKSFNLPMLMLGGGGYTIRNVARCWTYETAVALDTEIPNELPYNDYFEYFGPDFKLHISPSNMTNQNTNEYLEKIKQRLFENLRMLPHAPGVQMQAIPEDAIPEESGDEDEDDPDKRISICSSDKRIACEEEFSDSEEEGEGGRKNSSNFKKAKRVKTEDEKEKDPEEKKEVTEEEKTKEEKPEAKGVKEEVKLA
Chain of Histone deacetylase 4 (P56524 whole entry): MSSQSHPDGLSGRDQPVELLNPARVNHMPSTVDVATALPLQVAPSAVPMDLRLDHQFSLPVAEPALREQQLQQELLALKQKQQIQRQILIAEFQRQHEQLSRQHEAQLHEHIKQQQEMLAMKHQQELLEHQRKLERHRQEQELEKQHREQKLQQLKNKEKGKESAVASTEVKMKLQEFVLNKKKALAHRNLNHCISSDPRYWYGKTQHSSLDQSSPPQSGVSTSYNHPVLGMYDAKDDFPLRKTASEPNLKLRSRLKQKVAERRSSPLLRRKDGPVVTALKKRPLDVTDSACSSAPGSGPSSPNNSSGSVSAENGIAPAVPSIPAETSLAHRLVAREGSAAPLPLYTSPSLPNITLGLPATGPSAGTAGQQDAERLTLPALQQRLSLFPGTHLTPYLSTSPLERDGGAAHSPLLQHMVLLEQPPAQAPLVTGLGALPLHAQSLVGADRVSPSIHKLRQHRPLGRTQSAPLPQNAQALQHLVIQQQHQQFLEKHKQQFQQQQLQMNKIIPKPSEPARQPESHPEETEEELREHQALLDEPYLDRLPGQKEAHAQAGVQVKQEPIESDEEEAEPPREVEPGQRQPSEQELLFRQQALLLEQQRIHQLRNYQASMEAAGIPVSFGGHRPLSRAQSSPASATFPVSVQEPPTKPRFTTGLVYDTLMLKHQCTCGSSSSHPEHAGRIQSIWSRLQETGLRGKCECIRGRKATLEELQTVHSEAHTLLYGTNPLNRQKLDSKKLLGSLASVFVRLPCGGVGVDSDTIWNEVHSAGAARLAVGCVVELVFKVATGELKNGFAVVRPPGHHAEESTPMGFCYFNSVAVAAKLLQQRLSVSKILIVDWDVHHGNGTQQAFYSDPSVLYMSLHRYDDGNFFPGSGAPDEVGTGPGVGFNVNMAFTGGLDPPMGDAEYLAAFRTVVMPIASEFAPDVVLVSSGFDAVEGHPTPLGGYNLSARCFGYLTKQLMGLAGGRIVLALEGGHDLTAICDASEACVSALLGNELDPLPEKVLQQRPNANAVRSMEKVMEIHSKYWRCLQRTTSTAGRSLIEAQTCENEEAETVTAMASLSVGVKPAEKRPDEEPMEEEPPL

`Nc1ccccc1NC(=O)c1ccc(CCn2ncc3c2nc(N)n2nc(-c4ccco4)nc32)cc1`: in [1], the inhibition in vivo at 50 mg/kg came out at 81%. Besides, the inhibition in vivo at 30 mg/kg in data set [2] came out at 57.8%. The Activity result in data set [3] was “Dose-Dependent Effect”. For the same molecule, the IC50 in [4] was 0.632 µM; in [5], greater than 10 µM; in data set [16], 0.0802 µM; in data set [17], greater than 10 µM. This molecule showed a Vd in data set [6] of 1.19 L/kg. Besides, the AUC(0-inf) came to 1470 ng·h/mL in [7] and 1810 ng·h/mL in data set [13]. Also, the AUC(0-t) in data set [8] is 1460 ng·h/mL. For the same molecule, the half-life in data set [9] is 0.285 h; in [10] it was 1.89 h. Besides, in data set [11], the bioavailability was 30.3%. The mean residence time MRT in data set [12] is 1.41 h. Moreover, the GI50 came out at 6.1 µM in data set [14] and 6.2 µM in data set [15].

These data come from ChEMBL document CHEMBL5030563, “Structure-Based Design of Dual-Acting Compounds Targeting Adenosine A2A Receptor and Histone Deacetylase as Novel Tumor Immunotherapeutic Agents” (J Med Chem, 2021).
